Values after ≈ are worked out from the molar mass of the structure shown. Residues, ends and D or L forms follow the SMILES beside them.
Columns and labels:
[1] = test system: Staphylococcus aureus (ATCC 29213); experiment: microbe, parasite or virus in culture; assay type: cell-based; conditions: Staphylococcus aureus (ATCC 29213); averages of three repeats; read-out: Minimum inhibitory concentration (MIC)
Procedure: (§1) Antibacterial assay against various Gram-positive and Gram-negative strains of bacteria was performed by the serial two-fold dilution method according to the previously reported procedure, [36]. The antibacterial assays were repeated thrice and the averages of these MIC values were reported.

[2] = test system: Staphylococcus aureus (ATCC 33592) Methicillin resistant Genatmicin resistant; experiment: microbe, parasite or virus in culture; assay type: cell-based; conditions: Staphylococcus aureus (ATCC 33592), methicillin and gentamicin resistant; averages of three repeats; read-out: Minimum inhibitory concentration (MIC)
Procedure: as §1

[3] = test system: Pseudomonas aeruginosa (ATCC BAA-427); experiment: microbe, parasite or virus in culture; assay type: cell-based; conditions: Pseudomonas aeruginosa (ATCC BAA-427); averages of three repeats; read-out: Minimum inhibitory concentration (MIC)
Procedure: as §1

[4] = test system: Escherichia coli (ATCC 9637); experiment: microbe, parasite or virus in culture; assay type: cell-based; conditions: Escherichia coli (ATCC 9637); averages of three repeats; read-out: Minimum inhibitory concentration (MIC)
Procedure: as §1

[5] = test system: Staphylococcus aureus (ATCC 700699 MRSA); experiment: microbe, parasite or virus in culture; assay type: cell-based; conditions: Staphylococcus aureus (ATCC 700699 MRSA); averages of three repeats; read-out: Minimum inhibitory concentration (MIC)
Procedure: as §1

[6] = test system: Escherichia coli (ATCC 25922); experiment: microbe, parasite or virus in culture; assay type: cell-based; conditions: Escherichia coli (ATCC 25922); averages of three repeats; read-out: Minimum inhibitory concentration (MIC)
Procedure: as §1

[7] = test system: Staphylococcus aureus (ATCC 700698 MRSA); experiment: microbe, parasite or virus in culture; assay type: cell-based; conditions: Staphylococcus aureus (ATCC 700698 MRSA); averages of three repeats; read-out: Minimum inhibitory concentration (MIC)
Procedure: as §1

[8] = test system: Staphylococcus aureus (ATCC 25923); experiment: microbe, parasite or virus in culture; assay type: cell-based; conditions: Staphylococcus aureus (ATCC 25923); averages of three repeats; read-out: Minimum inhibitory concentration (MIC)
Procedure: as §1

[9] = test system: Klebsiella pneumoniae (ATCC 27736); experiment: microbe, parasite or virus in culture; assay type: cell-based; conditions: Klebsiella pneumoniae (ATCC 27736); averages of three repeats; read-out: Minimum inhibitory concentration (MIC)
Procedure: as §1

[10] = test system: Bacillus subtilis (ATCC 6633); experiment: microbe, parasite or virus in culture; assay type: cell-based; conditions: Bacillus subtilis (ATCC 6633); averages of three repeats; read-out: Minimum inhibitory concentration (MIC)
Procedure: as §1

[11] = test system: Staphylococcus aureus (BAA-44)MDR; experiment: microbe, parasite or virus in culture; assay type: cell-based; conditions: Staphylococcus aureus (BAA-44) MDR; averages of three repeats; read-out: Minimum inhibitory concentration (MIC)
Procedure: as §1

E. coli ATCC 25922 [12] = experiment: Synergy with conventional antibiotics, checkerboard titration; assay type: cell-based, Escherichia coli
Procedure: The checkerboard titration method was followed to check the synergy of peptides with other antibiotics. First, 2-fold serial dilutions of the antibiotics and antimicrobial peptides were prepared. Subsequently, 50 μl each of different concentrations of antibiotics and of antimicrobial peptides was mixed and added into 100 μl of log phase bacteria culture in a 96-well plate. The plates were then incubated at 37 °C for 24 h. The fractional inhibitory concentration (FIC) index (FICI) was calculated as follows[39]: FICI=(MICofdrugAincombination)/(MICofdrugAalone)+(MICofdrugBincombination)/(MICofdrugB): FICI < 0.5 is considered to indicate synergy; 0.5 < FICI < 1.0 is considered additive; 1.0 < FICI < 4.0 is considered indifferent; and FICI > 4.0 is considered antagonism.

E. coli ATCC 25922 [13] = assay type: cell-based, Escherichia coli; conditions: E. coli ATCC 25922
Procedure: (§2) E. coli ATCC25922 was grown to 10^6 CFU/ml in fresh MH broth with various divalent and monovalent salts at their physiological concentrations. Serial dilutions of chrysophsin-1 and its variants prepared with the same MH broth were added to the E. coli ATCC 25922 suspensions. The bacteria were incubated at 37 °C in a shaking incubator for 18 h and the MIC values of individual peptides against E. coli ATCC 25922 were determined. Thermal tolerance of Chrysophsin-1 and its variants was checked by incubating the peptides at 4 °C, 60 °C and 90 °C for 1 h prior to MIC determination. The antibacterial activity in presence of serum was carried out by adding a final concentration of 10% fetal bovine serum in the assay diluents containing 0.4% BSA, 0.02% glacial acetic acid. The subsequent steps in both the experiments were consistent with the MIC determination method.

E. coli (ATCC 25922) = assay type: cell-based, Escherichia coli; conditions: E. coli (ATCC 25922)
Procedure: as §2

S. aureus (ATCC 25923) = assay type: cell-based, Staphylococcus aureus; conditions: S. aureus (ATCC 25923)
Procedure: as §2

[14] = test system: Candida albicans (ATCC 10231); experiment: microbe, parasite or virus in culture; assay type: cell-based; conditions: Candida albicans (ATCC 10231); NCCLS micro broth dilution, 35 °C, 48 h, absorbance 492 nm; read-out: Minimum inhibitory concentration (MIC)
Procedure: (§3) The anti- fungal activity of peptides was performed according to the standard micro broth dilution technique as per NCCLS guidelines. These plates were incubated in a moist chamber at 35 °C, and an absorbance at 492 nm was recorded on a VersaMax microplate reader after 48 h for C. albicans ATCC 10231 and C. parapsilosis ATCC 22019 and 72 h for C. neoformans.

Cryptococcus neoformans = experiment: microbe, parasite or virus in culture; assay type: cell-based; conditions: Cryptococcus neoformans; NCCLS micro broth dilution, 35 °C, 72 h, absorbance 492 nm; read-out: Minimum inhibitory concentration (MIC)
Procedure: as §3

[15] = test system: Candida parapsilosis (ATCC 22019); experiment: microbe, parasite or virus in culture; assay type: cell-based; conditions: Candida parapsilosis (ATCC 22019); NCCLS micro broth dilution, 35 °C, 48 h, absorbance 492 nm; read-out: Minimum inhibitory concentration (MIC)
Procedure: as §3

[16] = test system: Sporothrix schenckii (Patient isolates); experiment: microbe, parasite or virus in culture; assay type: cell-based; conditions: Sporothrix schenckii (patient isolates); NCCLS micro broth dilution, 35 °C; read-out: Minimum inhibitory concentration (MIC)
[17] = peptide incubated 1 h at 4 °C prior to MIC determination
[18] = peptide incubated 1 h at 60 °C prior to MIC determination
[19] = peptide incubated 1 h at 90 °C prior to MIC determination

With CC[C@H](C)[C@H](NC(=O)[C@H](C)NC(=O)[C@H](CCCCN)NC(=O)CNC(=O)[C@H](C)NC(=O)[C@H](Cc1c[nH]cn1)NC(=O)[C@@H](NC(=O)[C@H](C)NC(=O)CNC(=O)[C@H](CCCCN)NC(=O)[C@@H](NC(=O)[C@H](CC(C)C)NC(=O)[C@H](Cc1c[nH]c2ccccc12)NC(=O)CNC(=O)[C@H](Cc1ccccc1)NC(=O)[C@@H](N)Cc1ccccc1)[C@@H](C)CC)[C@@H](C)CC)C(=O)N[C@@H](Cc1c[nH]cn1)C(=O)NCC(=O)N[C@@H](CC(C)C)C(=O)N[C@H](C(=O)N[C@@H](Cc1c[nH]cn1)C(=O)N[C@@H](CCCNC(=N)N)C(=O)N[C@@H](CCCNC(=N)N)C(=O)N[C@@H](CCCNC(=N)N)C(=O)N[C@@H](Cc1c[nH]cn1)C(N)=O)[C@@H](C)CC [Chr-1, reference compound] (H-FFGWLIKGAIHAGKAIHGLIHRRRH-NH2; N-terminus assumed) as the compound, how does the MIC [1] read?
The MIC was 1.6 µM (≈ 4.63 µg/mL).

And the MIC [2]?
The MIC was 1.6 µM (≈ 4.63 µg/mL).

And the MIC [3]?
The MIC was 6.8 µM (≈ 19.7 µg/mL).

What about the MIC [4] of the same compound?
Its MIC is 3.4 µM (≈ 9.83 µg/mL).

What about the MIC [5] of the same compound?
The MIC was 1.6 µM (≈ 4.63 µg/mL).

What about the MIC [6] of the same compound?
Its MIC is 3 µM (≈ 8.67 µg/mL).

What about the MIC [7] of the same compound?
The MIC was 3 µM (≈ 8.67 µg/mL).

What about the MIC [8] of the same compound?
Its MIC is 3 µM (≈ 8.67 µg/mL).

What about the MIC [9] of the same compound?
Its MIC is 3 µM (≈ 8.67 µg/mL).

And the MIC [10]?
The MIC was 6 µM (≈ 17.3 µg/mL).

What about the MIC [11] of the same compound?
The MIC was 1.6 µM (≈ 4.63 µg/mL).

And the “interaction of peptide with chloramphenicol (by FICI)” value (E. coli ATCC 25922 [12])?
The value was “synergy (FICI < 0.5 is considered to indicate synergy)”.

What about the “Antibacterial activity (MIC) in the presence of 10% FBS” value (E. coli ATCC 25922 [13]; 10% fetal bovine serum in assay diluent with 0.4% BSA, 0.02% glacial acetic acid) of the same compound?
Its value is 17.2 µM.

What about the “Antibacterial activity (MIC) in the presence of FeCl3” value (E. coli ATCC 25922 [13]; FeCl3 4 μM in MH broth, 37 °C, 18 h) of the same compound?
Its value is 4.3 µM.

And the “Antibacterial activity (MIC) in the presence of KCl” value (E. coli ATCC 25922 [13]; KCl 4.5 mM in MH broth, 37 °C, 18 h)?
The value was 4.3 µM.

What about the “Antibacterial activity (MIC) in the presence of MgCl2” value (E. coli ATCC 25922 [13]; MgCl2 1 mM in MH broth, 37 °C, 18 h) of the same compound?
Its value is 8.6 µM.

What about the “Antibacterial activity (MIC) in the presence of NH4Cl” value (E. coli ATCC 25922 [13]; NH4Cl 6 μM in MH broth, 37 °C, 18 h) of the same compound?
Its value is 4.3 µM.

What about the “Antibacterial activity (MIC) in the presence of NaCl” value (E. coli ATCC 25922 [13]; NaCl 150 mM in MH broth, 37 °C, 18 h) of the same compound?
Its value is 8.3 µM.

And the “Antibacterial activity (MIC) in the presence of ZnCl2” value (E. coli ATCC 25922 [13]; ZnCl2 8 μM in MH broth, 37 °C, 18 h)?
Its value is 4.3 µM.

What about the “Antibacterial activity (MIC) after incubating peptide at 4 °C” value (E. coli (ATCC 25922); [17]) of the same compound?
Its value is 3 µM.

And the “Antibacterial activity (MIC) after incubating peptide at 60 °C” value (E. coli (ATCC 25922); [18])?
The value was 8.3 µM.

And the “Antibacterial activity (MIC) after incubating peptide at 90 °C” value (E. coli (ATCC 25922); [19])?
The value was 8.6 µM.

And the “Antibacterial activity (MIC) after incubating peptide at 4 °C” value (S. aureus (ATCC 25923); [17])?
Its value is 3 µM.

And the “Antibacterial activity (MIC) after incubating peptide at 60 °C” value (S. aureus (ATCC 25923); [18])?
The value was 12.6 µM.

What about the “Antibacterial activity (MIC) after incubating peptide at 90 °C” value (S. aureus (ATCC 25923); [19]) of the same compound?
The value was 16.6 µM.

What about the MIC [14] of the same compound?
The MIC was 6.8 µM (≈ 19.7 µg/mL).

What about the MIC (Cryptococcus neoformans) of the same compound?
The MIC was 3 µM (≈ 8.67 µg/mL).

And the MIC [15]?
The MIC was 3 µM (≈ 8.67 µg/mL).

And the MIC [16]?
Its MIC is 13.6 µM (≈ 39.3 µg/mL).

From article PMC5469811, “Identification of GXXXXG motif in Chrysophsin-1 and its implication in the design of analogs with cell-selective antimicrobial and anti-endotoxin activities” (Scientific Reports, 2017)
